Measurements as given in ChEMBL document CHEMBL5338717, “Discovery of novel PDE4 inhibitors targeting the M-pocket from natural mangostanin with improved safety for the treatment of Inflammatory Bowel Diseases” (Eur J Med Chem, 2022).
Active and inactive are the calls of the source. No cut-off for these calls is given here.

Legend:
Cytochrome P450 1A2 = target: T1, Cytochrome P450 1A2 (Homo sapiens, UniProt P05177); test: Inhibition of human CYP1A2 in human hepatocytes; type: ADME, cell-based, Hepatocyte
T1 sequence (P05177 whole entry): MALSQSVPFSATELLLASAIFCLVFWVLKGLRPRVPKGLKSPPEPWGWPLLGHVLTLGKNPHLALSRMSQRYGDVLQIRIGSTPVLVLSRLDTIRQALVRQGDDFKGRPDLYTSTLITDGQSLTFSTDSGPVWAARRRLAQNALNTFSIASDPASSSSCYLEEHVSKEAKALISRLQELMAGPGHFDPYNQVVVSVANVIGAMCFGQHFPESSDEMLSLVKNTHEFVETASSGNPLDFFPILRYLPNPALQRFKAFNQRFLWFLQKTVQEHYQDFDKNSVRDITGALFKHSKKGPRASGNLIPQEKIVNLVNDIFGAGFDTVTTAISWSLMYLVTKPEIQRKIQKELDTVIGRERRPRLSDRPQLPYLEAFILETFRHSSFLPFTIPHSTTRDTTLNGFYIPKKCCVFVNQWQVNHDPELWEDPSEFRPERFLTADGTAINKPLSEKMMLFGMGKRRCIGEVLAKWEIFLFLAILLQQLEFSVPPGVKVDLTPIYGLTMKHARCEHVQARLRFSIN

[1] = Clearance in Sprague-Dawley rat at 2.5 mg/kg, iv; type: ADME, organism-based; settings: in vivo
Mus musculus [2] = test: Anti-inflammatory bowel disease activity in DSS-induced inflammatory bowel disease C57BL/6 mouse model assessed as decrease in mucosal ulceration in colon at 5 mg/kg, iv BID and measured after 8 days by Haematoxylin and eosin staining based microscopy; type: functional, organism-based; settings: time 8.0 day
Mus musculus [3] = test: Anti-inflammatory bowel disease activity in DSS-induced inflammatory bowel disease C57BL/6 mouse model assessed as decrease in goblet cells in colon at 5 mg/kg, iv BID and measured after 8 days by Haematoxylin and eosin staining based microscopy; type: functional, organism-based; settings: time 8.0 day
[4] = Metabolic stability in rat liver microsomes assessed as half life; type: ADME, Microsome
Cytochrome P450 2C9 = Cytochrome P450 2C9 (Homo sapiens, UniProt P11712); test: Inhibition of human CYP2C9 in human hepatocytes; type: ADME, cell-based, Hepatocyte
Chain of Cytochrome P450 2C9 (P11712 whole entry, the tested form may be a part): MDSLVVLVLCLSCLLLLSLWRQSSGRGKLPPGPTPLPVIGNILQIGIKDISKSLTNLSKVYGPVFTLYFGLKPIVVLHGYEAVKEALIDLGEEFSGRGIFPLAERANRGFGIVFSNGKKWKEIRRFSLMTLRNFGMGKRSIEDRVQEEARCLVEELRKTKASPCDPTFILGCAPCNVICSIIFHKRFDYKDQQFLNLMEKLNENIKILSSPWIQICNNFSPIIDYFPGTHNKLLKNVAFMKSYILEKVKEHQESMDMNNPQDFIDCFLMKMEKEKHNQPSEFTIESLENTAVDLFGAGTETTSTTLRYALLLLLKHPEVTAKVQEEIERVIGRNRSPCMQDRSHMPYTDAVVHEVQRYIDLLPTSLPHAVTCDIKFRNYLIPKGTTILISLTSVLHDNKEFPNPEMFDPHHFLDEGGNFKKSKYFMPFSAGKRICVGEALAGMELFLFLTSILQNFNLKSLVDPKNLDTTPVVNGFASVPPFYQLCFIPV

[5] = Selectivity index, ratio of IC50 for inhibition of recombinant PDE8A1 (480 to 828 residues) (unknown origin) expressed in Escherichia coli BL21 to IC50 for inhibition of recombinant PDE4D2 (86 to 413 residues) (unknown origin) expressed in Escherichia coli BL21
[6] = Selectivity index, ratio of IC50 for inhibition of recombinant PDE9A2 (181 to 506 residues) (unknown origin) expressed in Escherichia coli BL21 to IC50 for inhibition of recombinant PDE4D2 (86 to 413 residues) (unknown origin) expressed in Escherichia coli BL21
Mus musculus [7] = test: Anti-inflammatory bowel disease activity in DSS-induced inflammatory bowel disease C57BL/6 mouse model assessed as decrease in IL-6 mRNA expression level in colon at 5 mg/kg, iv BID and measured after 8 days by real-time PCR analysis; type: functional, organism-based; settings: time 8.0 day
Mus musculus [8] = test: Anti-inflammatory bowel disease activity in DSS-induced inflammatory bowel disease C57BL/6 mouse model assessed as decrease in body weight loss by measuring disease activity index score at 5 mg/kg, iv BID and measured upto 8 days; type: functional, organism-based; settings: time <= 8.0 day
[9] = target: cGMP-inhibited 3',5'-cyclic phosphodiesterase 3A (Homo sapiens, UniProt Q14432); test: Inhibition of recombinant PDE3A (679 to 1087 residues) (unknown origin) expressed in Escherichia coli BL21 using [3H]cAMP as substrate incubated for 15 mins by liquid scintillation method
Chain of cGMP-inhibited 3',5'-cyclic phosphodiesterase 3A (Q14432 whole entry, the tested form may be a part): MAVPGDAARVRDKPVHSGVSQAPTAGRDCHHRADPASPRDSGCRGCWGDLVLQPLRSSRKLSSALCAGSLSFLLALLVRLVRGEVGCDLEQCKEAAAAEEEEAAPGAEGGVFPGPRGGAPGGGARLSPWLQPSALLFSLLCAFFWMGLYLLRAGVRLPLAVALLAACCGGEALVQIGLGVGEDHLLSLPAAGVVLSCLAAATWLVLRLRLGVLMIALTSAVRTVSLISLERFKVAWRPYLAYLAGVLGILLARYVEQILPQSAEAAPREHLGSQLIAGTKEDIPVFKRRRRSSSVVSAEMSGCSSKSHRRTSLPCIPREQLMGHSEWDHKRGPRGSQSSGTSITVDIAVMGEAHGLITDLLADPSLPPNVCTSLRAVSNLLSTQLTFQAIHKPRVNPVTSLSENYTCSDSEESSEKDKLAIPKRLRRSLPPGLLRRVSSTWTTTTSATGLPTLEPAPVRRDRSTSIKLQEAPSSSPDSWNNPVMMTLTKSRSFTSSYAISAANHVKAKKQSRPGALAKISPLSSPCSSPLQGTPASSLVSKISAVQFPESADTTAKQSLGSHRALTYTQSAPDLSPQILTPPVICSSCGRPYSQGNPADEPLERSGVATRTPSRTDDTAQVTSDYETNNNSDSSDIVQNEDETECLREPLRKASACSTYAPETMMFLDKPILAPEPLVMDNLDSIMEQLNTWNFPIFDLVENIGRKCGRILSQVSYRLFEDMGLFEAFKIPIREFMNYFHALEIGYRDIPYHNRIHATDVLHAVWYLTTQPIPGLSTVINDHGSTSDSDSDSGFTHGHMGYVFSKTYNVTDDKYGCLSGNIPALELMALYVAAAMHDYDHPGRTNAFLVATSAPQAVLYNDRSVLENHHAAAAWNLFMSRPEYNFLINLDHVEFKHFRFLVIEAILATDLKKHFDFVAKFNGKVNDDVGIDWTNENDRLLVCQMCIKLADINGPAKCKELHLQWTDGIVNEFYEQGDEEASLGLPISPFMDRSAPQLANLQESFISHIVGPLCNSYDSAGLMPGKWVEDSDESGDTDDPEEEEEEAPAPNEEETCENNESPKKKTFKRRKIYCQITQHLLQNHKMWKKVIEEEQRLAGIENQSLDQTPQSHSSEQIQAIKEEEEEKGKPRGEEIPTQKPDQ

[10] = Selectivity index, ratio of IC50 for inhibition of recombinant PDE3A (679 to 1087 residues) (unknown origin) expressed in Escherichia coli BL21 to IC50 for inhibition of recombinant PDE4D2 (86 to 413 residues) (unknown origin) expressed in Escherichia coli BL21
[11] = target: Dual specificity calcium/calmodulin-dependent 3',5'-cyclic nucleotide phosphodiesterase 1C (Homo sapiens, UniProt Q14123); test: Inhibition of recombinant PDE1C (147 to 531 residues) (unknown origin) expressed in Escherichia coli BL21 using [3H]cGMP as substrate incubated for 15 mins by liquid scintillation method
[12] = Selectivity index, ratio of IC50 for inhibition of recombinant PDE4B2 (152 to 487 residues) (unknown origin) expressed in Escherichia coli BL21 to IC50 for inhibition of recombinant PDE4D2 (86 to 413 residues) (unknown origin) expressed in Escherichia coli BL21
[13] = target: High affinity cGMP-specific 3',5'-cyclic phosphodiesterase 9A (Homo sapiens, UniProt O76083); test: Inhibition of recombinant PDE9A2 (181 to 506 residues) (unknown origin) expressed in Escherichia coli BL21 using [3H]cGMP as substrate incubated for 15 mins by liquid scintillation method
Chain of High affinity cGMP-specific 3',5'-cyclic phosphodiesterase 9A (O76083 whole entry, the tested form may be a part): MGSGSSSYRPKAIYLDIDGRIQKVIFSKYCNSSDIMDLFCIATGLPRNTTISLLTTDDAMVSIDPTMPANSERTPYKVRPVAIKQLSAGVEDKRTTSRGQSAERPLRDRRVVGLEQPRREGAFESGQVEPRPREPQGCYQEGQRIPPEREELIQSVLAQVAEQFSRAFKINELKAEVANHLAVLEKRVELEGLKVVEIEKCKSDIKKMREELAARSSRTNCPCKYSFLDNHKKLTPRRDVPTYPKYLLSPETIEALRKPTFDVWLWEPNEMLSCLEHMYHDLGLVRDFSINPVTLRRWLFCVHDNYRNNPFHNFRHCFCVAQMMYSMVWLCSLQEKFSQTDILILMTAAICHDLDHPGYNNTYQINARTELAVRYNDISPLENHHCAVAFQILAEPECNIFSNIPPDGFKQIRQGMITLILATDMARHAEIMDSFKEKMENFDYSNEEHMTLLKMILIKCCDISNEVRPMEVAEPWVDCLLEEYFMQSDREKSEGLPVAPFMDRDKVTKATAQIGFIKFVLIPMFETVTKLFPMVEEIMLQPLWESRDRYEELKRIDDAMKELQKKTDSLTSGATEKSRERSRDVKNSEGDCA

Mus musculus [14] = test: Anti-inflammatory bowel disease activity in DSS-induced inflammatory bowel disease C57BL/6 mouse assessed as decrease in neutrophil infiltration in colon at 5 mg/kg, iv BID and measured after 8 days by Haematoxylin and eosin staining based microscopy; type: functional, organism-based; settings: time 8.0 day
[15] = Elimination half life in Sprague-Dawley rat at 2.5 mg/kg, iv; type: ADME, organism-based; settings: in vivo, read-out: beta t1/2 (converted)
Mus musculus [16] = test: Anti-inflammatory bowel disease activity in DSS-induced inflammatory bowel disease C57BL/6 mouse model assessed as decrease in TNF-alpha mRNA expression level in colon at 5 mg/kg, iv BID and measured after 8 days by real-time PCR analysis; type: functional, organism-based; settings: time 8.0 day
[17] = Selectivity index, ratio of IC50 for inhibition of PDE5A1 (535 to 860 residues) (unknown origin) expressed in Escherichia coli BL21 to IC50 for inhibition of recombinant PDE4D2 (86 to 413 residues) (unknown origin) expressed in Escherichia coli BL21
[18] = target: cGMP-dependent 3',5'-cyclic phosphodiesterase (Homo sapiens, UniProt O00408); test: Inhibition of recombinant PDE2A (580 to 919 residues) (unknown origin) expressed in Escherichia coli BL21 using [3H]cGMP as substrate incubated for 15 mins by liquid scintillation method
Chain of cGMP-dependent 3',5'-cyclic phosphodiesterase (O00408 whole entry, the tested form may be a part): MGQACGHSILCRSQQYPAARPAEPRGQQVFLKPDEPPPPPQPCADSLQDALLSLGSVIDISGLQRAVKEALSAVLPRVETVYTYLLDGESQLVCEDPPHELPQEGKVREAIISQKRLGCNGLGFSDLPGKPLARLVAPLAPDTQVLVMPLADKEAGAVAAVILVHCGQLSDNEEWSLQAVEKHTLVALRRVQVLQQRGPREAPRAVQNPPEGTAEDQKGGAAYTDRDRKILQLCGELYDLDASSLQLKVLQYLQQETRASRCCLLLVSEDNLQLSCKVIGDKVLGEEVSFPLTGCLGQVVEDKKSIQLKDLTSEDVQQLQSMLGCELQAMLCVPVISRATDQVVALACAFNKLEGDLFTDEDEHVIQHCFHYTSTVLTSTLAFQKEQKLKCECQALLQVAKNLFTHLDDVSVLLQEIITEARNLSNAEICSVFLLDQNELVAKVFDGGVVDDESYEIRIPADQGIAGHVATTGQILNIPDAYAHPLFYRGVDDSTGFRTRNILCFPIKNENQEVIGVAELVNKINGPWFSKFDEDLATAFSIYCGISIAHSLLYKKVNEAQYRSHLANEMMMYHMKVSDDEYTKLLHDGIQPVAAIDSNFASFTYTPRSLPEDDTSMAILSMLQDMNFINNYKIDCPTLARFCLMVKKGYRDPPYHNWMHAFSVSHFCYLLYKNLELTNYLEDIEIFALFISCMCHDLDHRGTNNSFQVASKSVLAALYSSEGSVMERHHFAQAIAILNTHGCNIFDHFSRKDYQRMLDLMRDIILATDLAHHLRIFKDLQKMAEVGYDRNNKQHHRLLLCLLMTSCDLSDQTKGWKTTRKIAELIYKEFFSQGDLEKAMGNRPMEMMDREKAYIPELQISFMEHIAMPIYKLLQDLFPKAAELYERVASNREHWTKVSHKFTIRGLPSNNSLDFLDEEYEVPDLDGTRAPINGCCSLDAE

[19] = target: High affinity 3',5'-cyclic-AMP phosphodiesterase 7A (Homo sapiens, UniProt Q13946); test: Inhibition of recombinant PDE7A1 (130 to 482 residues) (unknown origin) expressed in Escherichia coli BL21 using [3H]cAMP as substrate incubated for 15 mins by liquid scintillation method
Chain of High affinity 3',5'-cyclic-AMP phosphodiesterase 7A (Q13946 whole entry, the tested form may be a part): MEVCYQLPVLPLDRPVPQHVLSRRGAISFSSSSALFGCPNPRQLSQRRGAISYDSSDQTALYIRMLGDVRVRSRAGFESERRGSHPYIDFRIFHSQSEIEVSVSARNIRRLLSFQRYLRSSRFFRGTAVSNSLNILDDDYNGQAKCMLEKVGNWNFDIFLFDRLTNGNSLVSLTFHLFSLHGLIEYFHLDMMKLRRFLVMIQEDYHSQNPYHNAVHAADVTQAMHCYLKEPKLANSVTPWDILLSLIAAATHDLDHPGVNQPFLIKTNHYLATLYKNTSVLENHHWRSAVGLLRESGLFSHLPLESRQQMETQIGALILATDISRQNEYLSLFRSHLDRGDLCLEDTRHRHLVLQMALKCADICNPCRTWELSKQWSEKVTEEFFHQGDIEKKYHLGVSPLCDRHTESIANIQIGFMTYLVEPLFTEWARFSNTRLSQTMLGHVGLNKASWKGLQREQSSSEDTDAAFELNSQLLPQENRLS

Mus musculus [20] = test: Anti-inflammatory bowel disease activity in DSS-induced inflammatory bowel disease C57BL/6 mouse model assessed as increase in colon length at 5 mg/kg, iv BID and measured upto 8 days; type: functional, organism-based; settings: time <= 8.0 day
[21] = target: 3',5'-cyclic-AMP phosphodiesterase 4B (Homo sapiens, UniProt Q07343); test: Inhibition of recombinant PDE4B2 (152 to 487 residues) (unknown origin) expressed in Escherichia coli BL21 using [3H]cAMP as substrate incubated for 15 mins by liquid scintillation method
Chain of 3',5'-cyclic-AMP phosphodiesterase 4B (Q07343 whole entry, the tested form may be a part): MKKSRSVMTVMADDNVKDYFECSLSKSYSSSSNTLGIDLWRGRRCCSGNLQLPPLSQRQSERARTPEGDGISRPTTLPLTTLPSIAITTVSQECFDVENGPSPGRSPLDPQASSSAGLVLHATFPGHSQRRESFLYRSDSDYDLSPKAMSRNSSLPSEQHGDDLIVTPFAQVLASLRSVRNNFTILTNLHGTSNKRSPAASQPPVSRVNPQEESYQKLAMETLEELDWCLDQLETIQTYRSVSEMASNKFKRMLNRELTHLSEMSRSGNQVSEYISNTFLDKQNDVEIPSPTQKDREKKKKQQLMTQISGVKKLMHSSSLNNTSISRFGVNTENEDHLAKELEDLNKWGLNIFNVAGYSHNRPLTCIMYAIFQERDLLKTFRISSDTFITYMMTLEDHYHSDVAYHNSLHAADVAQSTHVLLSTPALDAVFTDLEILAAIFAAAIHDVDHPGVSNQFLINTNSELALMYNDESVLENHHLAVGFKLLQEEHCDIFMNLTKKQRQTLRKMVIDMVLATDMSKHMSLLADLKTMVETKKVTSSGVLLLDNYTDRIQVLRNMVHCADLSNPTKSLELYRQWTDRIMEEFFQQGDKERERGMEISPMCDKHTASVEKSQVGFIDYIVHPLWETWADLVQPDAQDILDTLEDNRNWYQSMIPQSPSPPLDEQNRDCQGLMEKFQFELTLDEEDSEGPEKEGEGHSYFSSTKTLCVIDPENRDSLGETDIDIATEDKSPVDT

COc1c(OCC2CC2)cc2oc3cc4c(c(OCc5ccncc5)c3c(=O)c2c1CC=C(C)C)C=CC(C)(C)O4
IC50 (Cytochrome P450 1A2): > 25 µM
clearance [1]: 6.4 mL/min/kg
Activity (Mus musculus [2]): Active
Activity (Mus musculus [3]): Active
half-life [4]: 7.42 h
IC50 (Cytochrome P450 2C9): 4.1 µM
Ratio IC50 [5]: 55
Ratio IC50 [6]: > 2800
Activity (Mus musculus [7]): Active
Activity (Mus musculus [8]): Active
IC50 [9]: > 10 µM
Ratio IC50 [10]: > 2800
IC50 [11]: > 10 µM
Ratio IC50 [12]: 2.71
IC50 [13]: > 10 µM
Activity (Mus musculus [14]): Active
half-life [15]: 4.18 h
Activity (Mus musculus [16]): Active
Ratio IC50 [17]: 353
IC50 [18]: > 10 µM
IC50 [19]: 0.015 µM
Activity (Mus musculus [20]): Active
IC50 [21]: 0.00951 µM
